These results are taken from patent publication US20100247503A1, “METHOD FOR OBTAINING A SOLID COMPOSITION WITH RHODOTORULA MINUTA, WHICH IS EFFECTIVE FOR THE BIOLOGICAL CONTROL OF ANTHRACNOSE, AND RESULTING COMPOSITION” (priority 2006, published 2010).

Holding throughout (type): in vivo
Experiment [1] relates to mango fruit (Mangifera indica) cv. Kent. Kind of experiment: Assessing the quality of the fruit (weight loss, pH, titratable acidity, total soluble solids) during storage. As to conditions: 85% RH. The method, then:
Assessing the quality of the fruit. Weight loss was assessed every third day by difference in weight with respect to the initial weight of the fruit, expressed as a percentage (Diaz-Pérez, 1998). The pH, titratable acidity (TA) and total soluble solids (TSS) were quantified according to the methodology proposed by the AOAC (1998) at 0, 6 and 12 days of storage. To determine the pH and acidity we used a Mettler automatic titrator (model DL-21) and the results were expressed in units of pH and percentage of citric acid, respectively. Total soluble solids were determined with a Leica Abbe Mark II type refractometer, temperature-compensated and previously calibrated with pure water. The results were expressed in Brix degrees (°Brix). For quality parameters, a fruit was selected as an experimental unit and five replications were used.
Statistical analysis. The study of the severity of the disease in mango fruits was analyzed using a completely randomized block design. Data from the evaluations of each treatment were subjected to unilateral variance analysis by Friedman ranges (p<0.05) using the SAS statistical system (SAS, 1998). The difference between treatments was determined by the Tukey test (p=0.05). For differences in the analysis of variance (ANOVA) of quality variables, the mediums were separated by Tukey multiple comparison test with a probability of error of 5%, using the Minitab statistical program version 13.1.
The same compositions presented in table 2 were used to study the effect of the application of biological control agents, subject of this invention, on the quality of mango fruit cv. Kent.

The subject of experiment [2] is Colletotrichum gloeosporioides. Kind of experiment: Field tests with liquid compositions, pre-harvest application, severity of anthracnose on mango fruit. The following applies: mango cv. Kent, five monthly pre-harvest sprays, fruit stored 15 days at 20° C., 85% RH, R. minuta 10^8, B. subtilis 10^6, mix 10^6+10^4 UFC/mL, Benomyl 0.5 g/L. The text has this: (§1) Application of treatments in the field. To verify field effectiveness we used an eight-year old commercial mango orchard cv. Kent, located in El Rosario, Sinaloa, Mexico. We selected the trees homogeneously to distribute them for each treatment (three trees per treatment). In each treatment there was a monthly application (five in total), using a backpack pump sprinkler operated at 400 pounds of pressure. We started during flowering (February) until the harvest (June or July), spraying suspensions of fresh or dried cells (previously hydrated), produced in semi-industrial fermenters. We sprayed 7 L of cell suspension on each selected mango tree, until all the foliage was wet. As a control treatment, we sprayed 7 L of irrigation water.
(§2) Quantifying the severity of anthracnose. For each treatment, 100 mango fruits were harvested at physiological maturity (Báez et al., 1993), and were stored under simulated marketing conditions at 20° C. and 85% relative humidity. We evaluated the severity of the disease after a minimum of 15 days of storage, using the presence of symptoms as indicator of the disease (anthracnose) in the fruit. […]
(§3) Statistical analysis. The study of the severity of the disease in mango fruits was analyzed using a completely randomized block design. […] The difference between treatments was determined by the Tukey test (p=0.05). […]

Experiment [3] relates to Colletotrichum gloeosporioides. Kind of experiment: Field tests with solid dry compositions, pre-harvest application, severity of anthracnose on mango fruit. As to conditions: mango cv. Kent, mix 10^6+10^4 UFC/mL, Benomyl 0.5 g/L.
Excerpt: as §1, §2, §3

SMILES strings stand for the structures.

Take `CCCCNC(=O)n1c(NC(=O)OC)nc2ccccc21` [Benomyl]: the “Weight loss (%)” value in experiment [1] (day 3 of storage at 20° C.) is on record as 0.9 a %; in experiment [1] (day 6 of storage at 20° C.) it was 1.6 a %; in experiment [1] (day 9 of storage at 20° C.) it was 2.4 ab %; in experiment [1] (day 12 of storage at 20° C.), 3.4 ab %; in experiment [1] (day 15 of storage at 20° C.) it was 4.3 a %; in experiment [1] (day 15 of storage at 20° C., listed as chemical treatment) it was 4.3%. In addition, the “% of severity after 15 days of storage” value in experiment [2] is 41.7 b %; in experiment [2] (listed as chemical treatment), 41.7%. Moreover, the “% severity” value in experiment [3] amounted to 25.0 b %; in experiment [3] (listed as chemical treatment), 36.2%.
